Our source for the Ki values is patent US7632857B2, “Histamine H3 receptor agents, preparation and therapeutic uses” (Eli Lilly and Company, priority 2004, dated 2009).

pKi: −log10 of the molar value.

The assay addresses T1, H3R (Homo sapiens, UniProt Q9Y5N1).
T1 construct: expressed in transfected cells; pcDNA3.1(+) vector, G418 selection)
Kind of assay: [35S] GTP γ [S] binding assay, antagonist activity in the presence of agonist. The class given is biochemical. To be noted: membranes from H3R8-expressing HEK293 cell line; agonist R(−)alpha methylhistamine. The method, then:
Membranes isolated as described in (Preparation of Histamine Receptor Subtype Membranes) were used in a [35S]GTPχS functional assay. Binding of [35S]GTPχS to membranes indicates agonist activity. Compounds of the invention of Formula I or Formula II were tested for their ability to inhibit binding in the presence of agonists. Alternately, the same transfected cell lines were used for a cAMP assay wherein H3R agonists inhibited forskolin-activated synthesis of cAMP. Compounds of Formula I or Formula II were tested for their ability to permit forskolin-stimulated cAMP synthesis in the presence of agonist.
cDNA for the human histamine 3 receptor was cloned and expressed as described in (A. Preparation H1R membranes), above. Transfected cells were selected using G418 (500μ/ml), grown, and tested for histamine binding by the SPA described above. For total binding, cells were assayed in a SPA reaction described above containing 50 mM Tris-HCL (assay buffer), pH 7.6, 1 mg wheat germ agglutinin SPA beads (Amersham Pharmacia Biotech, #RPNQ0001), and 1 nM (3H)-n-alpha-methylhistamine (NEN, NET1027) (total volume per well=200 μl). Thioperimide was added to determine non-specific binding. […]
Antagonist activity of selected compounds was tested for inhibition of [35S] […] Plates were counted in Wallac Trilux 1450 Microbeta scintillation counter for 1 minute. […]
On the technique in general: Binding of GTPγS marks nucleotide exchange on a G protein.

T1 sequence (Q9Y5N1 whole entry): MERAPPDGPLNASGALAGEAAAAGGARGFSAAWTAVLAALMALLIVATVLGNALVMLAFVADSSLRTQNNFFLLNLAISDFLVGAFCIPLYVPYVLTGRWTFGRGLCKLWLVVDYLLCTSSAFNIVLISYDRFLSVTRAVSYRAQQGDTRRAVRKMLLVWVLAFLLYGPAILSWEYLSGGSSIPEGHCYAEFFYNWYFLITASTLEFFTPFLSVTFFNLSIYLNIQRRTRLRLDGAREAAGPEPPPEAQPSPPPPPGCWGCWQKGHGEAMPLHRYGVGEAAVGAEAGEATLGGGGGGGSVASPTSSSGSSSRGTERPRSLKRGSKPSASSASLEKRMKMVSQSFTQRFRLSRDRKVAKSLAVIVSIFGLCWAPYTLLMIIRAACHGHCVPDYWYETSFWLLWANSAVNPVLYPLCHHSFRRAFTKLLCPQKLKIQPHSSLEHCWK

What is called pKi is the Ki on a negative log10 scale, so that one unit is a factor of ten. `O=C(c1ccc(-c2ccc(OCCN3CCCCC3)cc2)cc1)N1CCC[C@H]1CN1CCCC1`: the pKi is 7.49. With `O=C(c1ccc(-c2ccccn2)cc1)N1CCC[C@H]1CN1CCCC1`, the pKi was 8.31.
